Laboratory results: patent US20150191469A1, “COMPOUNDS AND METHODS FOR TREATING HIV” (priority 2012, published 2015)

test system: HIV; test: MT4 assay: antiviral HIV activity (cell protection, cell titer glo readout at 96 hours); type: cell-based; settings: Human immunodeficiency virus 1, MT4, 96 h, MT4 cells, cell titer glo readout at 96 hours, 10 point dose response; read-out: HIV MT4 Assay IC50
In short: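 MT-4 cells infected with HIV, with inhibition readout by CellTiter-Glo luminescence at 96 h relative to no-compound control. Cytotoxicity measured in parallel under the same conditions. IC50 from a 10-point, 3-4-fold dilution series spanning >1000-fold, fitted with a four-parameter logistic equation.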

Row | Structure (SMILES) | IC50 [nM]
1 | Cc1nc2c(cc(C(=O)N3CCN(CC(=O)N4CCCC4)CC3)n2C)c(-c2cc(F)c3c(c2C)CCCO3)c1[C@H](OC(C)(C)C)C(=O)O [Example 203] | 6040
2 | Cc1nc2c(cc(C(=O)N3CCN(CC(=O)N4CCOCC4)CC3)n2C)c(-c2cc(F)c3c(c2C)CCCO3)c1[C@H](OC(C)(C)C)C(=O)O [Example 204] | 11400
3 | Cc1nc2c(cc(C(=O)N3CCOC(C)(C(=O)NC4CCCC4)C3)n2C)c(-c2cc(F)c3c(c2C)CCCO3)c1[C@H](OC(C)(C)C)C(=O)O (stereo partly shown) [Example 205] | 373
4 | Cc1nc2c(cc(C(=O)N3CCCN(c4nccs4)CC3)n2C)c(-c2cc(F)c3c(c2C)CCCO3)c1[C@H](OC(C)(C)C)C(=O)O [Example 206] | 126
5 | Cc1nc2c(cc(C(=O)N3CCN(c4nccs4)CC3)n2C)c(-c2cc(F)c3c(c2C)CCCO3)c1[C@H](OC(C)(C)C)C(=O)O [Example 208] | 39.6
6 | Cc1cnc(CNC(=O)c2cc3c(-c4cc(F)c5c(c4C)CCCO5)c([C@H](OC(C)(C)C)C(=O)O)c(C)nc3n2C)cn1 [Example 211] | 121
7 | COc1ccc([C@@H](C)NC(=O)c2cc3c(-c4cc(F)c5c(c4C)CCCO5)c([C@H](OC(C)(C)C)C(=O)O)c(C)nc3n2C)cc1 [Example 216] | 41.3
8 | CC(=O)NC1(c2ccccc2)CCN(C(=O)c2cc3c(-c4cc(F)c5c(c4C)CCCO5)c([C@H](OC(C)(C)C)C(=O)O)c(C)nc3n2C)CC1 [Example 217] | 3380
9 | Cc1nc2c(cc(C(=O)N3CCN(C(=O)N(C)C)CC3)n2C)c(-c2cc(F)c3c(c2C)CCCO3)c1[C@H](OC(C)(C)C)C(=O)O [Example 220] | 1770
10 | Cc1nc2c(cc(C(=O)N3[C@@H]4CC[C@H]3CC(N3CCOCC3)C4)n2C)c(-c2cc(F)c3c(c2C)CCCO3)c1[C@H](OC(C)(C)C)C(=O)O (stereo partly shown) [Example 222] | 376

The remaining lines, values ahead:

Row | IC50 [nM] | Structure (SMILES)
11 | 92.8 | Cc1nc2c(cc(C(=O)N(CCC(C)C)CCC(C)C)n2C)c(-c2cc(F)c3c(c2C)CCCO3)c1[C@H](OC(C)(C)C)C(=O)O [Example 202]
12 | 311 | CCN(CC)C(=O)C1CCCN(C(=O)c2cc3c(-c4cc(F)c5c(c4C)CCCO5)c([C@H](OC(C)(C)C)C(=O)O)c(C)nc3n2C)C1 (stereo partly shown) [Example 207]
13 | 9.4 | Cc1nc2c(cc(C(=O)NCc3ccccc3)n2C)c(-c2cc(F)c3c(c2C)CCCO3)c1[C@H](OC(C)(C)C)C(=O)O [Example 209]
14 | 5 | Cc1nc2c(cc(C(=O)N[C@@H](C)c3ccccc3)n2C)c(-c2cc(F)c3c(c2C)CCCO3)c1[C@H](OC(C)(C)C)C(=O)O [Example 210]
15 | 28.8 | Cc1nc2c(cc(C(=O)NCCc3ccccc3)n2C)c(-c2cc(F)c3c(c2C)CCCO3)c1[C@H](OC(C)(C)C)C(=O)O [Example 212]
16 | 3.9 | Cc1nc2c(cc(C(=O)NCCOc3ccccc3)n2C)c(-c2cc(F)c3c(c2C)CCCO3)c1[C@H](OC(C)(C)C)C(=O)O [Example 213]
17 | 44.6 | Cc1nc2c(cc(C(=O)NC[C@H](C)c3ccccc3)n2C)c(-c2cc(F)c3c(c2C)CCCO3)c1[C@H](OC(C)(C)C)C(=O)O [Example 214]
18 | 30 | Cc1nc2c(cc(C(=O)NC[C@@H](C)c3ccccc3)n2C)c(-c2cc(F)c3c(c2C)CCCO3)c1[C@H](OC(C)(C)C)C(=O)O [Example 215]
19 | 47.3 | CC1=NC2(CCN(C(=O)c3cc4c(-c5cc(F)c6c(c5C)CCCO6)c([C@H](OC(C)(C)C)C(=O)O)c(C)nc4n3C)CC2)N=C1c1ccccc1 [Example 218]
20 | 807 | Cc1nc2c(cc(C(=O)N3CCN(CC(=O)N(C)c4ccccc4)CC3)n2C)c(-c2cc(F)c3c(c2C)CCCO3)c1[C@H](OC(C)(C)C)C(=O)O [Example 219]
21 | 17600 | Cc1nc2c(cc(C(=O)N3CCC4(CC3)C(=O)NC(=O)N4C)n2C)c(-c2cc(F)c3c(c2C)CCCO3)c1[C@H](OC(C)(C)C)C(=O)O [Example 221]
22 | 121 | Cc1nc2c(cc(C(=O)N3CCN(C4CCOCC4)C[C@H]3C)n2C)c(-c2cc(F)c3c(c2C)CCCO3)c1[C@H](OC(C)(C)C)C(=O)O [Example 223]
